Laboratory results reported in patent US20240228476A1, “INHIBITORS OF PROTEIN TYROSINE PHOSPHATASE, COMPOSITIONS, AND METHODS OF USE” (BRISTOL-MYERS SQUIBB COMPANY, priority 2022, published 2024).

Tests used:
[1] = tested on: B16-F10 cells; test: Cell proliferation assay (CellTiter-Glo) in B16-F10 cells with IFN-gamma; assay type: cell-based; details: 120 h, mouse IFN-gamma 10 ng/mL, read-out: PTPN2 Prolif 5d B16F10 EC50
Method: B16-F10 cells (ATCC, Manassas, VA, #CRL-6475) were cultured in DMEM growth medium (ThermoFisher Scientific, Waltham, MA, #11995-040) supplemented with 10% heat inactivated FBS (ThermoFisher Scientific, #16140-071) and 1% pen/strep (ThermoFisher Scientific, #15140-122). The cells were seeded into two white opaque 384-well tissue culture treated microplates (PerkinElmer, Waltham, MA, #6007688) at a density of 100 cells/well in 20 uL total volume and incubated overnight at 37 C and 5% CO2. 30 nL of compounds dissolved in DMSO were then transferred from a source plate into target wells with the Echo650 acoustic liquid handler (Beckman Coulter, Indianapolis, IN). Negative control wells received 30 nL of DMSO only (0.15% final concentration). Plates were returned to the incubator for 1 hour and then cells treated with either 5 uL of growth medium or 5 uL of growth medium containing 50 ng/ml of recombinant mouse IFN-gamma protein (R&D Systems, Minneapolis, MN, #485-MI/CF, 10 ng/mL final concentration) using the Assist automated pipetting platform (INTEGRA Biosciences, Hudson, NH). Plates were incubated at 37 C for 4 days and cell proliferation assayed with the CellTiter-Glo reagent (Promega, Madison, WI, #G7573, 25 uL per well). […] Off-target compound mediated cytotoxicity was identified by checking for growth inhibition in the absence of IFNg.

[2] = target: T1, PTPN2 (Homo sapiens, UniProt P17706); test: PTPN2 biochemical assay (PhosphoSens, substrate AQT0264); details: PhosphoSens substrate AQT0264 20 μM, room temperature; read-out: PTPN2 BCHEM IC50
T1 sequence (P17706 1-415): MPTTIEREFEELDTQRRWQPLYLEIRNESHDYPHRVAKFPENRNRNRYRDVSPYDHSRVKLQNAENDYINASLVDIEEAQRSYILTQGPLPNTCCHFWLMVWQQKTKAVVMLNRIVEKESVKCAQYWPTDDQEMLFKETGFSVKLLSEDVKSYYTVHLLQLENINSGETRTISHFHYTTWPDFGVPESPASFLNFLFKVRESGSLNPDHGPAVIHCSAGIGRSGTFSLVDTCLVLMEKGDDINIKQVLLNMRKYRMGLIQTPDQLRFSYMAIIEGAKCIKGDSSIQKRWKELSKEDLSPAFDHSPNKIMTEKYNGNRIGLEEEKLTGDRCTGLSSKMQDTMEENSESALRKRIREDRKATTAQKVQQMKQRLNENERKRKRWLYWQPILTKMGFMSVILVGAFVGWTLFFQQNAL
Method: A PhosphoSens® kinase assay was performed as described by the vendor (AssayQuant Technologies, Marlborough, MA). Briefly, 1000× solutions of compounds were prepared in DMSO via serial dilution of the 10 mM DMSO stocks using 3-fold intervals in a 384-well reagent plate. 50 nL of the compound dilution series was then added to the corresponding wells of a 384-well assay plate. 40 mL of 1.25× substrate (AQT0264) in 1× assay buffer (50 mM HEPES pH 7.5, 500 μM EGTA, […] MgCl2, 0.01% Brij-35, 1% Glycerol, 1 mM DTT, and 0.2 mg/mL BSA) was transferred to each well of the assay plate to achieve a final substrate concentration of 20 μM. Finally, […] of 5×PTPN2 enzyme stock was added to each well of the assay plate for a final enzyme concentration of […]. Reaction progress curves were collected by sampling fluorescence intensity at the excitation wavelength 360 nm (λex360) and emission wavelength 480 nm (λem480) every 71 seconds for one hour using a Synergy H4 plate reader (BioTek Instruments/Agilent Technologies, Winooski, VT) at room temperature.
(§1) For IC50 data, High DDT concentration and/or DiFMUP substrate assays were used; a skilled artisan may use either assay.

[3] = target: T1, PTPN2; test: Phosphatase activity assay using DiFMUP as substrate; assay type: biochemical; set-up: purchased MilliporeSigma SRP5075; details: 10 mM DTT, PTPN2 0.15 nM, room temperature, read-out: PTPN2 BCHEM DIFMUP IC50
Method: The PTPN2 biochemical assay was performed as follows, a 5× stock solution of human PTPN2 (SRP5075, MilliporeSigma, Burlington, MA) and a 1.25× stock solution of DiFMUP (D6567, ThermoFisher Scientific, Waltham, MA), were prepared in 1× reaction buffer consisting of 50 mM HEPES, pH 7.4, 1 mM EDTA, 150 mM NaCl, 0.2 mg/mL BSA, 100 U/mL catalase and 10 mM DTT. […] of the DiFMUP substrate solution, for a final concentration of […] DiFMUP substrate, was added to a Corning 3574 384-well, white, non-binding surface microtiter plate containing […] of serially diluted test compounds prepared in DMSO. The reactions were started with the addition of […] of the enzyme solution, for a final PTPN2 concentration of 0.15 nM, and monitored every 105 seconds for 60 minutes at λEX 360/λEM 460 in a BioTek Synergy HTX plate reader (Agilent Technologies, Santa Clara, CA) at room temperature. The initial linear portions of the progress curves were fit according to a linear equation to yield the slopes and converted to % inhibition based on a value of 100% activity for the no inhibitor treated control. IC50 values of each compound were obtained by fitting the % inhibition-compound concentration curves using Dotmatics software (Dotmatics, Bishops Stortford, Hertfordshire, England)
as §1

[4] = tested on: phospho-STAT1 (Tyr701); test: Phospho-STAT1 (Tyr701) HTRF assay in B16-F10 cells; assay type: cell-based; details: mouse IFN-gamma 100 ng/ml, 1 hour, read-out: pSTAT1 HTRF B16 EC50
Method: B16-F10 cells (ATCC, Manassas, VA, #CRL-6475) were cultured in DMEM growth medium (ThermoFisher Scientific, Waltham, MA, #11995-040) supplemented with 10% heat inactivated FBS (ThermoFisher Scientific, #16140-071) and 1% pen/strep (ThermoFisher Scientific, #15140-122). The cells were seeded into a white opaque 384-well tissue culture treated microplate (PerkinElmer, Waltham, MA, #6007688) at a density of 10,000 cells/well in 20 uL total volume and incubated overnight at 37 C and 5% CO2. 30 nL of compounds dissolved in DMSO were then transferred from a source plate into target wells with the Echo650 acoustic liquid handler (Beckman Coulter, Indianapolis, IN). Negative control wells received 30 nL of DMSO only (0.15% final concentration). Plates were returned to the incubator for 1 hour and then cells treated with either 5 uL of growth medium or 5 uL of growth medium containing 500 ng/ml of recombinant mouse IFN-gamma protein (R&D Systems, Minneapolis, MN, #485-MI/CF, 100 ng/ml final concentration) using the Assist automated pipetting platform (INTEGRA Biosciences, Hudson, NH). Plates were incubated at 37 C for 1 hour and assayed for phosphorylated STAT1 protein levels with the phospho-STAT1 (Tyr701) HTRF kit (Cisbio, Bedford, MA, #63ADK026PEH) according to manufacturer's instructions. HTRF signal intensity was collected with the En Vision 2105 plate reader (PerkinElmer) 24 hours later and analyzed with the Dotmatics software platform to calculate compound IC50 values.

| SMILES | EC50 [1] [nM] | IC50 [2] [nM] | IC50 [3] [nM] | EC50 [4] [nM] |
| --- | --- | --- | --- | --- |
| N#Cc1cnc(NCc2cc(O)c(N3CC(=O)NS3(=O)=O)c(F)c2)nc1 [EXAMPLE 9, 2-[[3-fluoro-5-hydroxy-4-(1,1,4-trioxo-1,2,5-thiadiazolidin-2-yl)phenyl]methylamino]pyrimidine-5-carbonitrile] | 1290 | 30 | 210 | 490 |
| O=C1CN(c2c(O)cc(CNc3cncc(C(F)(F)F)c3)cc2F)S(=O)(=O)N1 [EXAMPLE 7, 5-[2-fluoro-6-hydroxy-4-[[[5-(trifluoromethyl)-3-pyridyl]amino]methyl]phenyl]-1,1-dioxo-1,2,5-thiadiazolidin-3-one] | 3130 | 40 | 100 | 2300 |
| CCN(Cc1cc(O)c(N2CC(=O)NS2(=O)=O)c(F)c1)c1nc(C)cc(-c2ccccc2C#N)n1 [EXAMPLE 14, 2-[2-[ethyl-[[3-fluoro-5-hydroxy-4-(1,1,4-trioxo-1,2,5-thiadiazolidin-2-yl)phenyl]methyl]amino]-6-methyl-pyrimidin-4-yl]benzonitrile] | > 15000 | 210 | 490 | > 15000 |
| COc1ncc(C)nc1NCc1cc(O)c(N2CC(=O)NS2(=O)=O)c(F)c1 [EXAMPLE 20, 5-[2-fluoro-6-hydroxy-4-[[(3-methoxy-6-methyl-pyrazin-2-yl)amino]methyl]phenyl]-1,1-dioxo-1,2,5-thiadiazolidin-3-one] | > 15000 | 70 | 11100 | > 15000 |
| Cc1cc(NCc2cc(O)c(N3CC(=O)NS3(=O)=O)c(F)c2)ncn1 [EXAMPLE 26, 5-[2-fluoro-6-hydroxy-4-[[(6-methylpyrimidin-4-yl)amino]methyl]phenyl]-1,1-dioxo-1,2,5-thiadiazolidin-3-one] | 470 | 4 | 20 | 1200 |
| COc1cncc(NCc2cc(O)c(N3CC(=O)NS3(=O)=O)c(F)c2)n1 [EXAMPLE 23, 5-[2-fluoro-6-hydroxy-4-[[(6-methoxypyrazin-2-yl)amino]methyl]phenyl]-1,1-dioxo-1,2,5-thiadiazolidin-3-one] | 1550 | 10 | 20 | 1920 |
| O=C1CN(c2c(O)cc(CNc3ccc(-c4ccccc4)nc3)cc2F)S(=O)(=O)N1 [EXAMPLE 6, 5-[2-fluoro-6-hydroxy-4-[[(6-phenyl-3-pyridyl)amino]methyl]phenyl]-1,1-dioxo-1,2,5-thiadiazolidin-3-one] | 4240 | 70 | 400 | 2560 |
| Cc1cc(NCc2cc(O)c(N3CC(=O)NS3(=O)=O)c(F)c2)cc(C)n1 [EXAMPLE 2, 5-[4-[[(2,6-dimethyl-4-pyridyl)amino]methyl]-2-fluoro-6-hydroxy-phenyl]-1,1-dioxo-1,2,5-thiadiazolidin-3-one] | 6000 | 10 | 50 | 14000 |
| Cc1ncc(NCc2cc(O)c(N3CC(=O)NS3(=O)=O)c(F)c2)nc1C [EXAMPLE 19, 5-[4-[[(5,6-dimethylpyrazin-2-yl)amino]methyl]-2-fluoro-6-hydroxy-phenyl]-1,1-dioxo-1,2,5-thiadiazolidin-3-one] | 1240 | 10 | 50 | 370 |
| N#Cc1cncc(NCc2cc(O)c(N3CC(=O)NS3(=O)=O)c(F)c2)c1 [EXAMPLE 4, 5-[[3-fluoro-5-hydroxy-4-(1,1,4-trioxo-1,2,5-thiadiazolidin-2-yl)phenyl]methylamino]pyridine-3-carbonitrile] | 1650 | 44 | 11 | 1850 |
| O=C1CN(c2c(O)cc(CNc3cncc(-c4ccccc4)c3)cc2F)S(=O)(=O)N1 [EXAMPLE 12, 5-[2-fluoro-6-hydroxy-4-[[(5-phenyl-3-pyridyl)amino]methyl]phenyl]-1,1-dioxo-1,2,5-thiadiazolidin-3-one] | > 15000 | 20 | 100 | > 15000 |
| Cc1cnc(C)c(NCc2cc(O)c(N3CC(=O)NS3(=O)=O)c(F)c2)n1 [EXAMPLE 18, 5-[4-[[(3,6-dimethylpyrazin-2-yl)amino]methyl]-2-fluoro-6-hydroxy-phenyl]-1,1-dioxo-1,2,5-thiadiazolidin-3-one] | > 15000 | 50 | 110 | > 15000 |
| COc1ncc(C)c(NCc2cc(O)c(N3CC(=O)NS3(=O)=O)c(F)c2)n1 [EXAMPLE 22, 5-[2-fluoro-6-hydroxy-4-[[(2-methoxy-5-methyl-pyrimidin-4-yl)amino]methyl]phenyl]-1,1-dioxo-1,2,5-thiadiazolidin-3-one] | 10900 | 20 | 50 | 6800 |
| CC(C)(C)c1ccc(Oc2ccc(NCc3cc(O)c(N4CC(=O)NS4(=O)=O)c(F)c3)cn2)cc1 [EXAMPLE 31, 5-[4-[[[6-(4-tert-butylphenoxy)-3-pyridyl]amino]methyl]-2-fluoro-6-hydroxy-phenyl]-1,1-dioxo-1,2,5-thiadiazolidin-3-one] | > 15000 | 20 | 60 | > 15000 |
